Source: US20160074380A1, “Treatment Of Neurodegenerative Diseases With Combination Of Laquinimod And Fingolimod” (TEVA PHARMACEUTICAL INDUSTRIES LTD., priority 2014, published 2016)

Key:
[1] = tested on: microglia/macrophages; assay: Microglial activation in EAE-afflicted mice; format: in vivo; settings: spinal cord of EAE-afflicted mice
Excerpt: Laquinimod inhibited microglial activation in EAE in mice. Transcripts encoding markers of activation of microglia/macrophages were increased in the spinal cord of EAE-afflicted mice and decreased in laquinimod-treated animals, as presented in FIG. 15.

[2] = tested on: human microglia; assay: Human microglia activation in culture (LPS); format: cell-based
Excerpt: In another study, laquinimod reduced microglial activation in culture. The size of CD14 stained human microglia was increased with LPS activation. Also, in FIG. 13, human (C) or mouse (D) microglia elevated TNF-α secretion upon LPS activation, which was attenuated by laquinimod.

[3] = tested on: human astrocytes; assay: Human astrocyte activation and cytokine secretion in vitro; format: cell-based
Excerpt: The effect of laquinimod on human astrocyte activation, as investigated in another study, is detailed in FIGS. 9 and 10. […] In unstimulated cells, the NF-κB dimers are sequestered in the cytoplasm by a family of inhibitors, called IκBs (Inhibitor of κB). […] Activation of the NF-κB is initiated by the signal-induced degradation of IκB proteins. This occurs primarily via activation of a kinase called the IκB kinase (IKK). When activated by signals, usually coming from the outside of the cell, the IκB kinase phosphorylates two serine residues located in an IκB regulatory domain. When phosphorylated, the IκB inhibitor molecules are modified by a process called ubiquitination, which than leads them to be degraded by a cell structure called the proteasome. With the degradation of IκB, the NF-κB complex is then freed to enter the nucleus where it can ‘turn on’ the expression of specific genes that have DNA-binding sites for NF-κB nearby. The activation of these genes by NF-κB then leads to the given physiological response, for example, an inflammatory or immune response.

[4] = tested on: cuprizone model; assay: Demyelination and re-myelination in the cuprizone model; format: in vivo
[5] = tested on: established EAE; assay: Established EAE; format: in vivo
[6] = tested on: H2TT (primary neuronal culture) cells; assay: Oxidative glutamate toxicity of H2TT cells; format: cell-based; settings: prolonged incubation
[7] = tested on: peripheral lymphocyte counts; assay: Peripheral lymphocyte counts with fingolimod; format: in vivo; settings: S1P receptor-mediated
[8] = tested on: oligodendrocytes; settings: inflammatory insults; Rochelle, 2007; cited from earlier work
[9] = tested on: mouse-cultured cortical cells; settings: pretreatment; Di Menna, 2013; cited from earlier work

Structure (SMILES) | transcripts encoding markers of activation of microglia/macrophages [1] | size of CD14 stained human microglia ([2]; LPS activation) | microglial production of pro-inflammatory cytokine ([2]; human microglia) | TNF-α secretion ([2]; human microglia, LPS activation) | pro-inflammatory cytokine secretion ([3]; human astrocytes in vitro) | astrocyte activation ([3]; via the NF-κB pathway) | re-myelination ([4]; after cuprizone withdrawal) | demyelination ([4]; cuprizone model (non-T cell model of demyelination)) | clinical disease [5] | expansion of pre-existing lesions [5] | oxidative glutamate toxicity [6] | lymphocyte count reduction [7] | oligodendrocyte survival [8] | protection of neurons against NMDA toxicity [9]
CCN(C(=O)c1c(O)c2c(Cl)cccc2n(C)c1=O)c1ccccc1 [Laquinimod] | decreased | reduced | inhibited | attenuated | down regulates | interferes with astrocyte activation | no effect | significantly less demyelination | ameliorates clinical disease | inhibits further expansion of pre-existing lesions | protects against oxidative glutamate toxicity |  |  | 
CCCCCCCCc1ccc(CCC(N)(CO)CO)cc1 [Fingolimod] |  |  |  |  |  |  |  |  |  |  |  | dose dependent | did protect oligodendrocytes | protected neurons against NMDA toxicity
